From the supplement of paper PMC6723410 come the findings set out here.

Structures are written as SMILES.

The subject of assay [1] is GUMC-403. Nature of the assay: AC50 for reduction of cell viability; higher = less potent. As to conditions: 48 h.
The test system of assay [2] is GUMC-403. The assay can be described thus: viability at highest tested concentration (max response) relative to DMSO (% of DMSO control); higher = less cytotoxic. As to conditions: library / dose series: MIPE library, 11-point 1:3 dilution, 48 h. The essentials:
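Viability at the highest tested concentration is given relative to vehicle control. For this, conditionally reprogrammed patient-derived GUMC-403 papilloma cells at 700/well in 1536-well plates were exposed to 23 nL of pinned compound for 48 h. Luminescence from CellTiter-Glo was read on a ViewLux and scaled between empty wells (0%) and vehicle wells (100%).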

Where [3] appears, read: library / dose series: MIPE library, 11-point 1:3 dilution.

For `O=C(Nc1cc(C(F)(F)F)cc(C(F)(F)F)c1)c1cc(Cl)ccc1O`, the “AC50 for reduction of cell viability” value in the assay with GUMC-403 [1] (setting [3]) worked out at 1480 nM. Besides, the viability with GUMC-403 [2] (top concentration 46.1 µM) is 70.
Consider `COC1=C(OCCCN2CCOCC2)C=CC\3=C1/N=C(/NC(=O)C4=CN=C(N)N=C4)N5CC/N=C35`, for which the “AC50 for reduction of cell viability” value with GUMC-403 [1] (setting [3]) was 64.5 nM. For the same molecule, in the assay on GUMC-403 [2] (top concentration 23 µM), the viability came to 43.9.
In the case of `COc1cc2ncnc(Nc3cc(Br)c(O)c(Br)c3)c2cc1OC`, the “AC50 for reduction of cell viability” value in the assay on GUMC-403 [1] (setting [3]) was determined as 1480 nM. This molecule displayed a viability in the assay with GUMC-403 [2] (top concentration 46.1 µM) of 73.9.
In the same order, the values of `CC/1=C(\O)C(=O)\C=C2/C1=C/C=C3\[C@@]2(C)CC[C@@]4(C)[C@@H]5C[C@@](C)(CC[C@]5(C)CC[C@]34C)C(O)=O` are 8330 nM and 6.06.
As for `FC(F)c1nc2ccccc2n1-c1nc(N2CCOCC2)nc(N2CCOCC2)n1`, the “AC50 for reduction of cell viability” value with GUMC-403 [1] (setting [3]) came to 418 nM. In addition, the viability in the assay with GUMC-403 [2] (top concentration 46.1 µM) is 71.9.
Consider `Oc1ccc(-c2ccc(-c3cc(Nc4cccc(CNC5CC5)c4)[nH]n3)cc2)c(O)c1`, for which the “AC50 for reduction of cell viability” value with GUMC-403 [1] (setting [3]) is 13200 nM. This molecule also registered a viability with GUMC-403 [2] (top concentration 46.1 µM) of 13.7.
For `CC(C)C[C@H](NC(=O)[C@H](CCc1ccccc1)NC(=O)CN1CCOCC1)C(=O)N[C@@H](Cc1ccccc1)C(=O)N[C@@H](CC(C)C)C(=O)[C@@]1(C)CO1` the same measures were 1050 nM and 6.18.
In the same order, the values of `COc1cc(C[C@@H](CO)[C@H](CO)Cc2ccc(O)c(OC)c2)ccc1O` are 2640 nM and 34.9.
With `CC[S+](=O)([O-])Nc1ccc2c(c1)/C(=C(/Nc1ccc(CN3CCCCC3)cc1)c1ccccc1)C(=O)N2`, the “AC50 for reduction of cell viability” value in the assay on GUMC-403 [1] (setting [3]) is 1320 nM. The molecule also had a viability in the assay with GUMC-403 [2] (top concentration 46.1 µM) of 50.
In the same order, the values of `CC(C)c1cnn2c(NCc3ccccc3)cc(N[C@@H](CO)[C@H](O)CO)nc12` are 372 nM and 19.1.
For `O=C1c2c(O)ccc(O)c2C(=O)c2c(NCCNCCO)ccc(NCCNCCO)c21` the same measures were 7430 nM and 12.4.
With `COc1cc2ncnc(Nc3ccc(F)c(Cl)c3)c2cc1OCCCN1CCOCC1`, the “AC50 for reduction of cell viability” value with GUMC-403 [1] (setting [3]) was 270 nM. In the assay on GUMC-403 [2] (top concentration 92.2 µM), this molecule registered a viability of 58.7.
In the case of `O=C(NCCCNc1nc(Nc2cccc(NC(=O)N3CCCC3)c2)ncc1I)c1cccs1`, in the assay on GUMC-403 [1] (setting [3]), the “AC50 for reduction of cell viability” value worked out at 10500 nM. This molecule also registered a viability in the assay on GUMC-403 [2] (top concentration 46.1 µM) of 3.39.
In the same order, the values of `NC1(C(=O)N[C@@H](CCO)c2ccc(Cl)cc2)CCN(c2ncnc3[nH]ccc23)CC1` are 16600 nM and 33.6.
As for `CNC(=O)Nc1ccc(-c2nc(N3CC4CCC(C3)O4)c3cnn(C4CCC5(CC4)OCCO5)c3n2)cc1`, the “AC50 for reduction of cell viability” value in the assay with GUMC-403 [1] (setting [3]) was determined as 3.32 nM. In addition, the viability with GUMC-403 [2] (top concentration 46.1 µM) came to 62.9.
In the same order, the values of `Cc1nc(NC(=O)N2CCC[C@H]2C(N)=O)sc1-c1csc(C(C)(C)C)n1` are 10500 nM and 30.8.
In the same order, the values of `CC(C)[C@H](C(=O)Nc1ccc(C(=O)NO)cc1)c1ccccc1` are 18700 nM and 11.
For `CCOC(=O)[C@H](CCc1ccccc1)N[C@@H](C)C(=O)N1[C@H](C(=O)O)C[C@@H]2CCC[C@@H]21` the same measures were 26400 nM and 4.65.
For the molecule `Cc1nc(Nc2ncc(C(=O)Nc3c(C)cccc3Cl)s2)cc(N2CCN(CCO)CC2)n1`, the “AC50 for reduction of cell viability” value in the assay on GUMC-403 [1] (setting [3]) was determined as 209 nM. Further, the viability in the assay on GUMC-403 [2] (top concentration 46.1 µM) was 58.6.
Regarding `Cn1c2ccccc2c2c3c(c4c5ccccc5n(CCC#N)c4c21)CNC3=O`, in the assay on GUMC-403 [1] (setting [3]), the “AC50 for reduction of cell viability” value amounted to 7430 nM. In the assay on GUMC-403 [2] (top concentration 46.1 µM), this molecule returned a viability of 65.1.
In the same order, the values of `CNC(=O)c1nn(C)c2c1C(C)(C)Cc1cnc(Nc3ccc(N4CCN(C)CC4)cc3)nc1-2` are 4690 nM and 58.7.
For `CCOc1cc2ncc(C#N)c(Nc3ccc(F)c(Cl)c3)c2cc1NC(=O)/C=C/CN(C)C` the same measures were 29.6 nM and 76.1.
On to `CN[S+](=O)([O-])CCc1ccc2[nH]cc(C3CCN(C)CC3)c2c1`, for which the “AC50 for reduction of cell viability” value with GUMC-403 [1] (setting [3]) was found to be 2350 nM. In addition, the viability in the assay with GUMC-403 [2] (top concentration 46.1 µM) was determined as 70.
For `COc1c(C)cnc(Cn2cnc3c(Cl)nc(N)nc32)c1C` the same measures were 2960 nM and 61.4.
For `COc1ccc(Nc2cc(-c3cnc(N)nc3)nc(N3CCOCC3)n2)cn1` the same measures were 2960 nM and 31.5.
`Cc1c(CN2CCN([S+](C)(=O)[O-])CC2)sc2c(N3CCOCC3)nc(-c3cnc(N)nc3)nc12`: in the assay with GUMC-403 [1] (setting [3]), the “AC50 for reduction of cell viability” value is 118 nM. The molecule also came in with a viability in the assay on GUMC-403 [2] (top concentration 46.1 µM) of 41.9.
With `COc1ccc(-c2nc(N3CCOCC3)c3sc(CN(C)c4ncc(C(=O)NO)cn4)cc3n2)cn1`, the “AC50 for reduction of cell viability” value with GUMC-403 [1] (setting [3]) amounted to 1050 nM. The same molecule returned a viability in the assay with GUMC-403 [2] (top concentration 46.1 µM) of 44.7.
In the same order, the values of `Clc1ccc(C(c2ccc(Cl)cc2)[n+]2ccn(CC(OCc3ccc(Cl)cc3Cl)c3ccc(Cl)cc3Cl)c2)cc1` (stereo not given) are 20900 nM and 25.1.
For `N[S+](=O)([O-])OC[C@@H]1C[C@@H](n2ccc3c(N[C@H]4CCc5ccccc54)ncnc32)C[C@@H]1O` the same measures were 469 nM and 60.8.
As to `Cc1n[nH]c2ccc(-c3cncc(OC[C@@H](N)Cc4c[nH]c5ccccc45)c3)cc12`, in the assay with GUMC-403 [1] (setting [3]), the “AC50 for reduction of cell viability” value is 1870 nM. In the assay on GUMC-403 [2] (top concentration 46.1 µM), this molecule showed a viability of 7.23.
In the case of `Cl.Cl.Fc1ccc(C(OCCN2CCN(CCCc3ccccc3)CC2)c2ccc(F)cc2)cc1`, in the assay on GUMC-403 [1] (library / dose series: NPC library, 8-point 1:5 dilution), the “AC50 for reduction of cell viability” value was 11900 nM. Moreover, the viability in the assay on GUMC-403 [2] (top concentration 46.1 µM) stood at 67.6.
`CC[C@@]1(O)C(=O)OC\C2=C1\C=C\3N(CC4=C3N=C5C=CC=CC5=C4)C2=O`: the “AC50 for reduction of cell viability” value with GUMC-403 [1] (setting [3]) is 16600 nM. The molecule also yielded a viability with GUMC-403 [2] (top concentration 46.1 µM) of 32.3.
For `CC1(C)CC(=O)c2c(C(F)(F)F)nn(-c3ccc(C(N)=O)c(NC4CCC(O)CC4)c3)c2C1` (stereo not given) the same measures were 296 nM and 67.7.
For `Nc1nc(NCCNc2ncc(-n3ccnc3)c(-c3ccc(Cl)cc3Cl)n2)ccc1[N+](=O)[O-]` the same measures were 2350 nM and 61.4.
For `CCc1c(O)cc(O)c(C(=O)c2ccc(OCCN3CCOCC3)c(OC)c2)c1CC(=O)N(CCOC)CCOC` the same measures were 2090 nM and 56.6.
On to `COc1cc(Nc2c(C#N)cnc3cc(OCCCN4CCN(C)CC4)c(OC)cc23)c(Cl)cc1Cl`, for which the “AC50 for reduction of cell viability” value in the assay on GUMC-403 [1] (setting [3]) came to 2350 nM. In the assay on GUMC-403 [2] (top concentration 46.1 µM), this molecule displayed a viability of 74.7.
With `C=CC(=O)Nc1cccc(Nc2nc(NC3CCC(N(C)C)CC3)nc3c2ncn3C(C)C)c1` (stereo not given), in the assay on GUMC-403 [1] (setting [3]), the “AC50 for reduction of cell viability” value was determined as 2960 nM. This molecule returned a viability with GUMC-403 [2] (top concentration 46.1 µM) of 8.03.
For the molecule `COC1=CC=C(C=N1)C/2=C/C3=C(C)N=C(N)N=C3N(C4CCC(CC4)OCCO)C2=O` (stereo not given), the “AC50 for reduction of cell viability” value with GUMC-403 [1] (setting [3]) amounted to 264 nM. Also, the viability in the assay with GUMC-403 [2] (top concentration 46.1 µM) is 4.47.
Take `CC(C)Oc1cc(Nc2nc(N[C@@H](C)c3ccc(F)cn3)ncc2Cl)n[nH]1`: the “AC50 for reduction of cell viability” value in the assay on GUMC-403 [1] (setting [3]) worked out at 8330 nM. The viability with GUMC-403 [2] (top concentration 46.1 µM) was determined as 58.4.
In the same order, the values of `COc1cc(Nc2ncc(F)c(Nc3ccc4c(n3)N(COP(=O)(O)O)C(=O)C(C)(C)O4)n2)cc(OC)c1OC` are 935 nM and 34.2.
In the same order, the values of `COc1ccc(-c2ccc3c(N4CCOC[C@@H]4C)nc(N4CCOC[C@@H]4C)nc3n2)cc1CO` are 37.2 nM and 57.2.
Take `NC(=O)Nc1cc(-c2cccc(F)c2)sc1C(=O)N[C@H]1CCCNC1`: in the assay on GUMC-403 [1] (setting [3]), the “AC50 for reduction of cell viability” value is 16600 nM. This molecule also displayed a viability in the assay on GUMC-403 [2] (top concentration 46.1 µM) of 12.8.
Take `CCC[C@@H](C=O)NC(=O)[C@H](CC(C)C)NC(=O)[C@H](CC(C)C)NC(=O)OCc1ccccc1`: the “AC50 for reduction of cell viability” value with GUMC-403 [1] (setting [3]) was found to be 14800 nM. Besides, in the assay on GUMC-403 [2] (top concentration 46.1 µM), the viability was determined as 7.94.
For `CNC(=O)c1ccc(N2C(=S)N(c3cnc(C#N)c(C(F)(F)F)c3)C(=O)C23CCC3)cc1F` the same measures were 13200 nM and 16.6.
For `O=C(Nc1cccc(Nc2ncc(Br)c(NCCc3cnc[nH]3)n2)c1)N1CCCC1`, the “AC50 for reduction of cell viability” value in the assay on GUMC-403 [1] (setting [3]) was determined as 20900 nM. In the assay with GUMC-403 [2] (top concentration 46.1 µM), this molecule displayed a viability of 6.39.
Regarding `CCN1CCN(Cc2ccc(-c3cc4c(N[C@H](C)c5ccccc5)ncnc4[nH]3)cc2)CC1`, in the assay with GUMC-403 [1] (setting [3]), the “AC50 for reduction of cell viability” value was found to be 372 nM. Besides, the viability in the assay on GUMC-403 [2] (top concentration 46.1 µM) was determined as 69.
Turning to `C[C@@]12O[C@@H](C[C@]1(O)CO)n1c3ccccc3c3c4c(c5c6ccccc6n2c5c31)CNC4=O`, in the assay with GUMC-403 [1] (setting [3]), the “AC50 for reduction of cell viability” value came to 5900 nM. Also, the viability in the assay with GUMC-403 [2] (top concentration 46.1 µM) worked out at 7.55.
For `Cc1ccc([N+](=O)[O-])cc1[S+](=O)([O-])N(C)/N=C/c1cnc2ccc(Br)cn12` the same measures were 23.5 nM and 8.42.
In the case of `Oc1cccc(-c2nc(N3CCOCC3)c3oc4ncccc4c3n2)c1`, the “AC50 for reduction of cell viability” value in the assay on GUMC-403 [1] (setting [3]) was 762 nM. Besides, the viability in the assay on GUMC-403 [2] (top concentration 92.2 µM) amounted to 28.3.
`O=C(Nc1ccc([N+](=O)[O-])cc1Cl)c1cc(Cl)ccc1O`: the “AC50 for reduction of cell viability” value in the assay with GUMC-403 [1] (setting [3]) amounted to 4180 nM. In the assay with GUMC-403 [2] (top concentration 46.1 µM), the viability is 53.9.
